EP1953147A1, “HETEROCYCLIC COMPOUND AND MEDICINAL APPLICATION THEREOF” (priority 2005, dated 2007)
pIC50: −log10 of the molar value. Where a name gives a salt, the structure may show the parent alone.

Tested on: ΔG/SEAP/HCV E1E2
Assay: Effect of test substance on cell infection with HCV pseudotype virus (SEAP reporter assay in HepG2 cells)
Assay type: cell-based
Conditions: Hepatitis C virus

Compound | pIC50
COc1cc(OC)cc(-c2nn(-c3cc(NCCNC(=O)OC(C)(C)C)ccc3C(F)(F)F)c(=O)c3c2CCC3)c1 [Example 118, (2-{3-[4-(3,5-dimethoxy-phenyl)-1-oxo-1,5,6,7-tetrahydro-cyclopenta[d]pyridazin-2-yl]-4-trifluoromethyl-phenylamino}-ethyl)-carbamic acid tert-butyl ester] | > 7.00
COc1cc(OC)cc(-c2nn(-c3cc(N4CCOCC4)ccc3C(F)(F)F)c(=O)c3c2CCC3)c1 [Example 70, 4-(3,5-dimethoxy-phenyl)-2-(5-morpholin-4-yl-2-trifluoromethyl-phenyl)-2,5,6,7-tetrahydro-cyclopenta[d]pyridazin-1-one] | > 7.00
COc1cc(OC)cc(-c2nn(-c3cc(NCCNC(C)=O)ccc3C(F)(F)F)c(=O)c3c2CCC3)c1 [Example 117, N-(2-{3-[4-(3,5-dimethoxy-phenyl)-1-oxo-1,5,6,7-tetrahydro-cyclopenta[d]pyridazin-2-yl]-4-trifluoromethyl-phenylamino}-ethyl)-acetamide] | > 7.00
COc1cc(OC)cc(-c2nn(-c3cc(N4CC[C@H](O)C4)ccc3C(F)(F)F)c(=O)c3c2CCN3CCN)c1 [Example 49, 1-(2-amino-ethyl)-4-(3,5-dimethoxy-phenyl)-6-[5-((S)-3-hydroxy-pyrrolidin-1-yl)-2-trifluoromethylphenyl]-1,2,3,6-tetrahydro-pyrrolo[2,3-d]pyridazin-7-one] | > 7.00
Cc1cccc(-c2nn(-c3cc(N4CC[C@H](O)C4)ccc3C(F)(F)F)c(=O)c3c2CCC3)c1 [Example 64, 2-[5-((S)-3-hydroxy-pyrrolidin-1-yl)-2-trifluoromethyl-phenyl]-4-m-tolyl-2,5,6,7-tetrahydro-cyclopenta[d]pyridazin-1-one] | > 7.00
CN(C)c1cccc(-c2nn(-c3cc(N4CC[C@H](O)C4)ccc3C(F)(F)F)c(=O)c3c2CCC3)c1 [Example 85, 4-(3-dimethylamino-phenyl)-2-[5-((S)-3-hydroxy-pyrrolidin-1-yl)-2-trifluoromethyl-phenyl]-2,5,6,7-tetrahydro-cyclopenta[d]pyridazin-1-one] | > 7.00
COc1cc(OC)cc(-c2nn(-c3cc(N4CC[C@H](O)C4)ccc3C(F)(F)F)c(=O)c3c2CCC3)c1 [Example 9, 4-(3,5-dimethoxy-phenyl)-2-[5-((S)-3-hydroxy-pyrrolidin-1-yl)-2-trifluoromethyl-phenyl]-2,5,6,7-tetrahydro-cyclopenta[d]pyridazin-1-one] | > 7.00
COc1cc(OC)cc(-c2nn(-c3cc(N4CC[C@H](O)C4)ccc3C(F)(F)F)c(=O)c3c2CC(C)N3)c1 (stereo partly drawn) [Example 20, 4-(3,5-dimethoxy-phenyl)-6-[5-((S)-3-hydroxy-pyrrolidin-1-yl)-2-trifluoromethyl-phenyl]-2-methyl-1,2,3,6-tetrahydro-pyrrolo[2,3-d]pyridazin-7-one] | > 7.00
CNC(=O)CCCNc1ccc(C(F)(F)F)c(-n2nc(-c3cc(OC)cc(OC)c3)c3c(c2=O)CCC3)c1 [Example 153, 4-{3-[4-(3,5-dimethoxy-phenyl)-1-oxo-1,5,6,7-tetrahydro-cyclopenta[d]pyridazin-2-yl]-4-trifluoromethyl-phenylamino}-N-methyl-butyramide] | > 7.00
O=C(O)c1ccc(-c2nn(-c3cc(N4CC[C@H](O)C4)ccc3C(F)(F)F)c(=O)c3c2CCC3)cc1 [Example 80, 4-{3-[5-((S)-3-hydroxy-pyrrolidin-1-yl)-2-trifluoromethyl-phenyl]-4-oxo-4,5,6,7-tetrahydro-3H-cyclopenta[d]pyridazin-1-yl}-benzoic acid] | 5.00 to 7.00
COc1cc(OC)cc(-c2nn(-c3ccccc3C(F)(F)F)c(=O)c3c2CCC3)c1 [Example 107, 4-(3,5-dimethoxy-phenyl)-2-(2-trifluoromethylphenyl)-2,5,6,7-tetrahydro-cyclopenta[d]pyridazin-1-one] | 5.00 to 7.00
O=c1c2c(c(-c3ccsc3)nn1-c1cc(N3CC[C@H](O)C3)ccc1C(F)(F)F)CCC2 [Example 158, 2-[5-((S)-3-hydroxy-pyrrolidin-1-yl)-2-trifluoromethyl-phenyl]-4-thiophen-3-yl-2,5,6,7-tetrahydro-cyclopenta[d]pyridazin-1-one] | 5.00 to 7.00
COc1cc(OC)cc(-c2nn(-c3cc(N4CC[C@H](O)C4)ccc3C(F)(F)F)c(=O)c3c2CCCN3CCO)c1 [Example 1-39, 5-(3,5-dimethoxy-phenyl)-1-(2-hydroxy-ethyl)-7-[5-((S)-3-hydroxy-pyrrolidin-1-yl)-2-trifluoromethylphenyl]-1,3,4,7-tetrahydro-2H-pyrido[2,3-d]pyridazin-8-one] | > 7.00
COc1cc(OC)cc(-c2nn(-c3cc(NC(C)=O)ccc3C(F)(F)F)c(=O)c3c2CCC3)c1 [Example 159, N-{3-[4-(3,5-dimethoxy-phenyl)-1-oxo-1,5,6,7-tetrahydro-cyclopenta[d]pyridazin-2-yl]-4-trifluoromethyl-phenyl}-acetamide] | > 7.00
COc1cc(OC)cc(-c2nn(-c3cc(N4CC[C@H](O)C4)ccc3C(F)(F)F)c(=O)c3c2SCC3)c1 [Example 1-37, 7-(3,5-dimethoxy-phenyl)-5-[5-((S)-3-hydroxy-pyrrolidin-1-yl)-2-trifluoromethyl-phenyl]-3,5-dihydro-2H-thieno[2,3-d]pyridazin-4-one] | > 7.00
COc1cc(OC)cc(-c2nn(-c3cc(N4CC[C@H](O)C4)ccc3F)c(=O)c3c2CCC3)c1 [Example 42, 4-(3,5-dimethoxy-phenyl)-2-[2-fluoro-5-((S)-3-hydroxy-pyrrolidin-1-yl)-phenyl]-2,5,6,7-tetrahydro-cyclopenta[d]pyridazin-1-one] | 5.00 to 7.00
COc1cc(OC)cc(-c2nn(-c3cc(F)ccc3C(F)(F)F)c(=O)c3c2CCC3)c1 [Example 1-12, 4-(3,5-dimethoxy-phenyl)-2-(5-fluoro-2-trifluoromethylphenyl)-2,5,6,7-tetrahydro-cyclopenta[d]pyridazin-1-one] | 5.00 to 7.00
CCC(O)CN1CCc2c(-c3cc(OC)cc(OC)c3)nn(-c3cc(N4CC[C@H](O)C4)ccc3C(F)(F)F)c(=O)c21 (stereo partly drawn) [Example 30, 4-(3,5-dimethoxy-phenyl)-1-(2-hydroxy-butyl)-6-[5-((S)-3-hydroxy-pyrrolidin-1-yl)-2-trifluoromethylphenyl]-1,2,3,6-tetrahydro-pyrrolo[2,3-d]pyridazin-7-one] | > 7.00
COc1cc(OC)cc(-c2nn(-c3cc(Cl)ccc3C(F)(F)F)c(=O)c3c2CCN3)c1 [Example 51, 6-(5-chloro-2-trifluoromethyl-phenyl)-4-(3,5-dimethoxy-phenyl)-1,2,3,6-tetrahydro-pyrrolo[2,3-d]pyridazin-7-one] | 5.00 to 7.00
CNC(=O)c1ccc(C(F)(F)F)c(-n2nc(-c3cc(OC)cc(OC)c3)c3c(c2=O)CCC3)c1 [Example 1-11, 3-[4-(3,5-dimethoxy-phenyl)-1-oxo-1,5,6,7-tetrahydro-cyclopenta[d]pyridazin-2-yl]-N-methyl-4-trifluoromethyl-benzamide] | > 7.00
O=c1c2c(c(C3CCCC3)nn1-c1cc(N3CC[C@H](O)C3)ccc1C(F)(F)F)CCC2 [Example 1-19, 4-cyclopentyl-2-[5-((S)-3-hydroxy-pyrrolidin-1-yl)-2-trifluoromethyl-phenyl]-2,5,6,7-tetrahydro-cyclopenta[d]pyridazin-1-one] | 5.00 to 7.00
COc1cc(OC)cc(-c2nn(-c3cc(C)ccc3C(F)(F)F)c(=O)c3c2CCC3)c1 [Example 88, 4-(3,5-dimethoxy-phenyl)-2-(5-methyl-2-trifluoromethyl-phenyl)-2,5,6,7-tetrahydro-cyclopenta[d]pyridazin-1-one] | > 7.00
COC(=O)CCNc1ccc(C(F)(F)F)c(-n2nc(-c3cc(OC)cc(OC)c3)c3c(c2=O)NCC3)c1 [Example 47, 3-{3-[4-(3,5-dimethoxy-phenyl)-7-oxo-1,2,3,7-tetrahydro-pyrrolo[2,3-d]pyridazin-6-yl]-4-trifluoromethyl-phenylamino}-propionic acid methyl ester] | > 7.00
COc1cc(OC)cc(-c2nn(-c3cc(NCCN)ccc3C(F)(F)F)c(=O)c3c2CCC3)c1 [Example 119, 2-[5-(2-amino-ethylamino)-2-trifluoromethylphenyl]-4-(3,5-dimethoxy-phenyl)-2,5,6,7-tetrahydro-cyclopenta[d]pyridazin-1-one hydrochloride] | > 7.00
Cc1ccc(-c2nn(-c3cc(N4CC[C@H](O)C4)ccc3C(F)(F)F)c(=O)c3c2CCC3)cc1 [Example 114, 2-[5-((S)-3-hydroxy-pyrrolidin-1-yl)-2-trifluoromethyl-phenyl]-4-p-tolyl-2,5,6,7-tetrahydro-cyclopenta[d]pyridazin-1-one] | > 7.00
COc1cc(OC)cc(-c2nn(-c3cc(NCCC(=O)O)ccc3C(F)(F)F)c(=O)c3c2CCC3)c1 [Example 122, 3-{3-[4-(3,5-dimethoxy-phenyl)-1-oxo-1,5,6,7-tetrahydro-cyclopenta[d]pyridazin-2-yl]-4-trifluoromethyl-phenylamino}-propionic acid] | > 7.00
COc1cc(OC)cc(-c2nn(-c3cc(N4CCCC4=O)ccc3C(F)(F)F)c(=O)c3c2CCC3)c1 [Example 150, 4-(3,5-dimethoxy-phenyl)-2-[5-(2-oxo-pyrrolidin-1-yl)-2-trifluoromethyl-phenyl]-2,5,6,7-tetrahydro-cyclopenta[d]pyridazin-1-one] | > 7.00
COc1cc(OC)cc(-c2nn(-c3cc(N4CC[C@H](O)C4)ccc3C(F)(F)F)c(=O)c3c2CCN3CC(=O)NCCCCNC(C)=O)c1 [Example 44, N-(4-acetylamino-butyl)-2-{4-(3,5-dimethoxy-phenyl)-6-[5-((S)-3-hydroxy-pyrrolidin-1-yl)-2-trifluoromethyl-phenyl]-7-oxo-2,3,6,7-tetrahydro-pyrrolo[2,3-d]pyridazin-1-yl}-acetamide] | > 7.00
COc1cc(OC)cc(-c2nn(-c3cc(F)ccc3C(F)(F)F)c(=O)c3c2CCN3)c1 [Example 50, 4-(3,5-dimethoxy-phenyl)-6-(5-fluoro-2-trifluoromethyl-phenyl)-1,2,3,6-tetrahydro-pyrrolo[2,3-d]pyridazin-7-one] | 5.00 to 7.00
COc1cc(OC)cc(-c2nn(-c3cc(OCCCO)ccc3C(F)(F)F)c(=O)c3c2CCC3)c1 [Example 1-13, 4-(3,5-dimethoxy-phenyl)-2-[5-(3-hydroxy-propoxy)-2-trifluoromethyl-phenyl]-2,5,6,7-tetrahydro-cyclopenta[d]pyridazin-1-one] | > 7.00
